Series [1] is described as follows: Inhibition of Mycobacterium smegmatis thioredoxin 6xHis-tagged decaprenylphosphoryl-beta-D-ribose2'-epimerase 1 overexpressed in Escherichia coli rosetta cells using farnesyl-phosphoryl-beta-D-ribofuranose as substrate. Details: species or system Mycolicibacterium smegmatis.
A further series concerns the target Cytochrome P450 2D6 (Homo sapiens, UniProt P10635). Nature of the series: Inhibition of human CYP2D6. Format: ADME.
The target in a further series is Cytochrome P450 2C19 (Homo sapiens, UniProt P33261). Nature of the series: Inhibition of human CYP2C19. In kind it is ADME.
Another series deals with Cytochrome P450 2C9 (Homo sapiens, UniProt P11712). Nature of the series: Inhibition of human CYP2C9. Format: ADME.
A further series concerns the target T1, Cytochrome P450 1A2 (Homo sapiens, UniProt P05177).
T1 sequence (P05177 whole entry): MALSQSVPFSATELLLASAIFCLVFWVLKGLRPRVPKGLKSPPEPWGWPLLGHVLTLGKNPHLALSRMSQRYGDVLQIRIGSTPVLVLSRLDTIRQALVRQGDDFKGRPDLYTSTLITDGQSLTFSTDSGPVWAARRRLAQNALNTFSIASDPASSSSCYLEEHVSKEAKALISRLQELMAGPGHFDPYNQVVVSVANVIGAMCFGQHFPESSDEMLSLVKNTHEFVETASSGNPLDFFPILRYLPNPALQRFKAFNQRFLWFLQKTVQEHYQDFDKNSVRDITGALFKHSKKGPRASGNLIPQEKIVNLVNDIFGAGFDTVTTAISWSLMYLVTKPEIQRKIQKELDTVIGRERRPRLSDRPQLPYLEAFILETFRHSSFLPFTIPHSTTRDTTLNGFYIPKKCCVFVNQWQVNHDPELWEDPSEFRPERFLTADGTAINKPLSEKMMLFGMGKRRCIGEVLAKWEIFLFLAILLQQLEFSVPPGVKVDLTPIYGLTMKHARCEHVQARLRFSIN
Description: Inhibition of human CYP1A2. In kind it is ADME.

For the next series, the target named is Cytochrome P450 3A4 (Homo sapiens, UniProt P08684). Description: Inhibition of human CYP3A4. In kind it is ADME.
Series [2] in a line: Clearance in po dosed rat. In kind it is ADME, organism-based. As to conditions: in vivo.
A short description of series [3]: Oral bioavailability in rat. The note with it: in vivo. Format: ADME, organism-based.
Series [4] is described as follows: Cmax in BALB/c mouse at 50 mg/kg, po administered as single dose. In kind it is ADME, organism-based. Details: dose 50 mg/kg, route oral. As to conditions: in vivo.
The nature of series [5]: Tmax in BALB/c mouse at 50 mg/kg, po administered as single dose. Format: ADME, organism-based. Set-up: dose 50 mg/kg, route oral. As to conditions: in vivo.
The nature of series [6]: AUC (infinity) in BALB/c mouse at 50 mg/kg, po administered as single dose. The note with it: plasma. In kind it is ADME, organism-based. Set-up: dose 50 mg/kg, route oral, time infinity.
Series [7] is described as follows: Half life in BALB/c mouse at 50 mg/kg, po administered as single dose. Format: ADME, organism-based. Details: dose 50 mg/kg, route oral. The note with it: in vivo.
The target of series [8] is Voltage-gated inwardly rectifying potassium channel KCNH2 (Homo sapiens, UniProt Q12809).
Series [9] has as its system Mycobacterium tuberculosis. In kind it is functional, H37Rv ATCC 27294, THP-1. As to conditions: Mycobacterium tuberculosis, H37Rv ATCC 27294; read-out: MIC.
A further series has as its target Phosphodiesterase 6. Nature of the series: Inhibition of PDE6 (unknown origin). In kind it is protein assay, Homo sapiens.
Series [10] is described as follows: Intrinsic clearance in mouse liver microsomes. In kind it is ADME. The note with it: read-out: CLH.
A short description of series [11]: Aqueous solubility of the compound in phosphate buffer at pH 7.4 after 24 hrs by UV-MS analysis. In kind it is physicochemical.
Series [12] is described as follows: Unbound fraction in human plasma. In kind it is ADME, cell-free.
The subject of series [13] is Mycobacterium tuberculosis. Format: functional, organism-based. Set-up: dose 100 mg/kg. As to conditions: H37Rv ATCC 27294, Lung, 100 mg/kg.
Series [14] can be described thus: Cmax in BALB/c mouse at 30 mg/kg, po administered as single dose. Format: ADME, organism-based. Set-up: dose 30 mg/kg, route oral. The note with it: in vivo.
Series [15] is described as follows: Tmax in BALB/c mouse at 30 mg/kg, po administered as single dose. In kind it is ADME, organism-based. Details: dose 30 mg/kg, route oral. As to conditions: in vivo.
Series [16] in a line: AUC (infinity) in BALB/c mouse at 30 mg/kg, po administered as single dose. In kind it is ADME, organism-based. Set-up: time infinity, dose 30 mg/kg, route oral. As to conditions: plasma.
Series [17] in a line: Half life in BALB/c mouse at 30 mg/kg, po administered as single dose. Format: ADME, organism-based. Set-up: dose 30 mg/kg, route oral. The note with it: in vivo.
Series [18] relates to Rattus norvegicus. Nature of the series: (§1) AUC in Mycobacterium tuberculosis H37Rv ATCC 27294 infected Wistar rat infection model at 100 mg/kg, po. In kind it is ADME, organism-based. Details: dose 100 mg/kg, route oral. The note with it: in vivo.
For series [19], the system named is Rattus norvegicus. Description: T>MIC in Wistar rat chronically infected with Mycobacterium tuberculosis H37Rv ATCC 27294 at 100 mg/kg, po.
The nature of series [20]: Permeability across basolateral to apical side in human Caco2 cells. In kind it is ADME, cell-based. The note with it: Caco-2, read-out: permeability.
A short description of series [21]: Octanol-water partition coefficient, log D of the compound at pH 7.4 by shake flask method. In kind it is physicochemical.
The nature of series [22]: Permeability across apical to basolateral side in human Caco2 cells. As to conditions: Caco-2, read-out: permeability. In kind it is ADME, cell-based.
Series [23] in a line: as §1. In kind it is ADME, organism-based. Set-up: dose 100 mg/kg, route oral. As to conditions: Wistar, in vivo.
In series [24] the test system is Mycobacterium tuberculosis. Nature of the series: microbe, parasite or virus in culture. As to conditions: H37Rv ATCC 27294, 120 h.
Description: Antimicrobial activity against Mycobacterium tuberculosis H37Rv ATCC 27294 assessed as growth inhibition after 5 days by microdilution method

This is an account of results in ChEMBL document CHEMBL3286390, “Lead optimization of 1,4-azaindoles as antimycobacterial agents” (J Med Chem, 2014).

Converted amounts (≈) assume the structure as drawn. The source made the active and inactive calls. The calls are words filed in the database; no cut-off is given here. Where only a bound is given, the exact number is not on record here.

Cytochrome P450 2D6, sequence (P10635 whole entry): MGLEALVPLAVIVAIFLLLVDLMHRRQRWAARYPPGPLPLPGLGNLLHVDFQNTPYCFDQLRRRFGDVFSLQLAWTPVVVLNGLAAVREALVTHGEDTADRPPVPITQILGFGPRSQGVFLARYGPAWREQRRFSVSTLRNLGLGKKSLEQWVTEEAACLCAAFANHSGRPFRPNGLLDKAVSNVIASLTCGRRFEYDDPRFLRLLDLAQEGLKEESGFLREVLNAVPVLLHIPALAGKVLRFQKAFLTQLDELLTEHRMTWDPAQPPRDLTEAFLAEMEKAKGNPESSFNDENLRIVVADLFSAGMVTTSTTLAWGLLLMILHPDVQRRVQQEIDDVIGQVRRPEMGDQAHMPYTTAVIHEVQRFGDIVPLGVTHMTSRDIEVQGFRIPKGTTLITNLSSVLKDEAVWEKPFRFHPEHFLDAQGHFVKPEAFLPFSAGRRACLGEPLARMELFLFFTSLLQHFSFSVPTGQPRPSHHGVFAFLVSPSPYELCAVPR
Cytochrome P450 3A4, sequence (P08684 whole entry): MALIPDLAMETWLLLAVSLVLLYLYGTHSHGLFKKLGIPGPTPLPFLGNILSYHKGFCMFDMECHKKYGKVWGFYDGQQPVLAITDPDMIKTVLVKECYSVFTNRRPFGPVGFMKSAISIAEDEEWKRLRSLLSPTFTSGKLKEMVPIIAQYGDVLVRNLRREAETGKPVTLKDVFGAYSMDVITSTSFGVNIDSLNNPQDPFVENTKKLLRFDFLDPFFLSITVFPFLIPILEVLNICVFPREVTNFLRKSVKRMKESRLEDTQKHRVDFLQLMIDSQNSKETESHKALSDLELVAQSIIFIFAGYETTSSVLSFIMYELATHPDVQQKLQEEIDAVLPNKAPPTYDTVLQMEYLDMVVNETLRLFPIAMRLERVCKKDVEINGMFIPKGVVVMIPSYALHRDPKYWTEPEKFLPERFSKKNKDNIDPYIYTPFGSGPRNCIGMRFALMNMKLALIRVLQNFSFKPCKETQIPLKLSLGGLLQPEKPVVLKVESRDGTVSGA
Cytochrome P450 2C19, sequence (P33261 whole entry): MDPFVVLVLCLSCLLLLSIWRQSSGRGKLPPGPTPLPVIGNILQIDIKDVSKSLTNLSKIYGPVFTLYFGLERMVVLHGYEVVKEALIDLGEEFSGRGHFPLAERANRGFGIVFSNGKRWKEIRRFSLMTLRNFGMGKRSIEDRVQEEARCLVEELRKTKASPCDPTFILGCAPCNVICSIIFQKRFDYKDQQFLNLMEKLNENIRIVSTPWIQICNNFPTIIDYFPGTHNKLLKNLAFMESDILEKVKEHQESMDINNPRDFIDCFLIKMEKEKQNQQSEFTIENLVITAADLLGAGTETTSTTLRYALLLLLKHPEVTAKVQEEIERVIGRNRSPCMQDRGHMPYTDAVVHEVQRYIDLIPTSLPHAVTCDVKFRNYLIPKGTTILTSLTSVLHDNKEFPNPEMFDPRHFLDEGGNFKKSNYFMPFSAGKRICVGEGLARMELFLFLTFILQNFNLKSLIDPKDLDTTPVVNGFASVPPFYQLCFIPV
Cytochrome P450 2C9, sequence (P11712 whole entry): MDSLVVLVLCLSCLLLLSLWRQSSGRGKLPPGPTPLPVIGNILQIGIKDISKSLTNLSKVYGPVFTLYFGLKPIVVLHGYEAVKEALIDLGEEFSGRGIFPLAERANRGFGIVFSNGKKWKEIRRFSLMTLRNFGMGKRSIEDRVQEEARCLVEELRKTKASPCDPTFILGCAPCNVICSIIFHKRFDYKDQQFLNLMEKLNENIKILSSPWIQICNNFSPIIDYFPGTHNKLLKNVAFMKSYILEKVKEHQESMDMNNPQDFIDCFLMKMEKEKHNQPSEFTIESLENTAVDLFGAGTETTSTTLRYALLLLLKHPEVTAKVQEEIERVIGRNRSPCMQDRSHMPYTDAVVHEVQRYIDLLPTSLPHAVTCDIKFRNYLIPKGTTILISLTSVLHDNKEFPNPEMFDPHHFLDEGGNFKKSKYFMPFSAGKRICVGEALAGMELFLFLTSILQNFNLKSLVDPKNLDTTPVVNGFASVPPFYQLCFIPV
Voltage-gated inwardly rectifying potassium channel KCNH2, sequence (Q12809 whole entry): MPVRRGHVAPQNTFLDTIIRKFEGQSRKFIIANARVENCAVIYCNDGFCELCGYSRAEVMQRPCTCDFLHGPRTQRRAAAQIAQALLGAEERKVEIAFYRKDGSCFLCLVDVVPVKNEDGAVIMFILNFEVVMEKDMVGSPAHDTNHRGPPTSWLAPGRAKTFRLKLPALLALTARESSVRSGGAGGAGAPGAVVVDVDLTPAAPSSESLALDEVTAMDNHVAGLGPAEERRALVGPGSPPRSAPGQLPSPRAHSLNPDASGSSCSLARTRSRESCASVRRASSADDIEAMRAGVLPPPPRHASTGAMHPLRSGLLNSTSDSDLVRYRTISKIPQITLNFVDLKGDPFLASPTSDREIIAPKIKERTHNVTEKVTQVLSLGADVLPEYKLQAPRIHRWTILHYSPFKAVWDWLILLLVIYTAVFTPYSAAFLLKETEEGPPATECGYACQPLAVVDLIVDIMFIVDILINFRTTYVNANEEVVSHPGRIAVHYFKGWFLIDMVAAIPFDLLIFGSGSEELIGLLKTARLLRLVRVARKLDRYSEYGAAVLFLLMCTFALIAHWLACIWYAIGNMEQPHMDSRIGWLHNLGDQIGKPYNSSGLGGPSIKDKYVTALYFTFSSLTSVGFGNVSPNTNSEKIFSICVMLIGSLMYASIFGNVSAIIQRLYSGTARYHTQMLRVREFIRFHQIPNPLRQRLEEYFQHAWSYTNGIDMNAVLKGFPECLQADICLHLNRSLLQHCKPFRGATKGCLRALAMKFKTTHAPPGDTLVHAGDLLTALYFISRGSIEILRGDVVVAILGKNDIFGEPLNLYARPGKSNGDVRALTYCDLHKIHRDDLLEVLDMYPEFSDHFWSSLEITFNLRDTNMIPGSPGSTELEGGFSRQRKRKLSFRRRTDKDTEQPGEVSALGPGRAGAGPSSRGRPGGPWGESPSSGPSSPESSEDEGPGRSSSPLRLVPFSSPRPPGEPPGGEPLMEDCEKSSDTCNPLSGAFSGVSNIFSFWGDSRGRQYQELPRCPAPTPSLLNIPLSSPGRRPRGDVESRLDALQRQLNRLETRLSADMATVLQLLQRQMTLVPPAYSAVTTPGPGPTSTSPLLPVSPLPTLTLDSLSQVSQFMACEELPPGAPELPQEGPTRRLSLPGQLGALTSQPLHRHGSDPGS

With `COc1ncnc(Cn2cc(C(=O)NCCO)c3ncc(C)cc32)c1C` [TBA-7371], the IC50 in [1] is 10 nM; on Cytochrome P450 2D6, > 50 µM; at Cytochrome P450 2C19, > 50 µM; at Cytochrome P450 2C9 it was > 50 µM; against Cytochrome P450 1A2, > 50 µM; on Cytochrome P450 3A4 it was > 50 µM. In [8], the IC50 was > 33 µM. The molecule also had an apparent clearance CL/F in series [2] of 27 mL/min/kg. Besides, the bioavailability in [3] worked out at 100%. This molecule gave a Cmax in series [4] of 73 µM. Further, the Tmax in series [5] is 15 min. In [6], this molecule returned an AUC(0-inf) of 62 µM·h. This molecule also showed a half-life in series [7] of 42 min.

On to `COc1ncnc(Cn2cc(C(=O)NCCF)c3ncc(C)cc32)c1C`, for which the MIC in series [9] was < 0.39 µM. In addition, the concentration for half-maximal inhibition (IC50) in series [1] is 3 nM; on Phosphodiesterase 6 it was 1 µM; at Cytochrome P450 2D6 it was > 50 µM; at Cytochrome P450 2C19, > 50 µM; against Cytochrome P450 2C9 it was > 50 µM; against Cytochrome P450 1A2 it was > 50 µM. The figures for the IC50 (at Cytochrome P450 3A4; in [8]) were > 50 µM and > 33 µM, respectively. The microsomal CLint in series [10] was determined as 107 µL/min/mg. In [11], this molecule returned a solubility at 24 h of 4 µM (≈ 1.43 µg/mL). Moreover, the fraction unbound in [12] was 0.07. The molecule further returned a bioavailability in series [3] of 80%. Moreover, in series [13], the result was Active. The Cmax in series [14] was determined as 5.24 µM. In addition, in series [15], the Tmax was 15 min. This molecule displayed an AUC(0-inf) in series [16] of 2 µM·h. Also, the half-life in series [17] is 30 min. Also, the AUC in the series with Rattus norvegicus [18] was 23 µM·h. Besides, the “T>MIC” value with Rattus norvegicus [19] amounted to 10 h. The Papp B→A in [20] amounted to 18 ×10⁻⁶ cm/s.

As for `COc1ncnc(Cn2cc(C(=O)NCC(F)F)c3ncc(C)cc32)c1C`, the MIC in [9] and in [24] was < 0.39 µM in each case. Moreover, the concentration for half-maximal inhibition (IC50) in [1] is < 5 nM; on Phosphodiesterase 6 it was > 10 µM; at Cytochrome P450 2D6 it was > 50 µM; at Cytochrome P450 2C19 it was > 50 µM; at Cytochrome P450 2C9, > 50 µM; against Cytochrome P450 1A2 it was > 50 µM. Also, the IC50 on Cytochrome P450 3A4 is > 50 µM; in series [8], > 33 µM. In [10], the microsomal CLint amounted to 77 µL/min/mg. The logD in [21] came out at 2.9. The same molecule came in with a solubility at 24 h in [11] of 3 µM (≈ 1.13 µg/mL). Also, the fraction unbound in series [12] is 0.05. Also, the Papp A→B in series [22] worked out at 24 ×10⁻⁶ cm/s. Moreover, the outcome in series [13] was Active. In addition, in series [23], the AUC is 23 µM·h. For the same molecule, the “T>MIC” value in the series on Rattus norvegicus [19] amounted to 10 h. For the same molecule, in series [20], the Papp B→A was determined as 9 ×10⁻⁶ cm/s.
